Source: patent US20050100519A1, “Topical L-carnitine compositions” (Lonza Inc., priority 2003, published 2005)
“Also recorded” adds a separate entry of the source.

Key:
skin [1] = assay: Exfoliating efficacy of topical creams by the dansyl chloride method (skin turnover time); format: in vivo, human
Procedure: The exfoliating efficacy of topical L-carnitine compositions of varying pH was determined as follows. L-carnitine containing reparative/exfoliating creams with a UV sunscreen were prepared as described in Example 2, except (1) phase B included 10.00% urea, 3.0% Natrulon® H-10, and 45.50% deionized water, (2) phase C included (a) 5.6% L-carnitine, (b) q,s. of sodium hydroxide and hydrochloric acid to adjust the pH of the cream to 4, 5, 6, or 7, and (c) 20.1% deionized water.
Each topical composition (creams) was tested as follows. The composition was applied twice daily to skin (approximately 0.2 g/10 cm^2) over a period of 20 days, and the exfoliation was measured using the dansyl chloride method.
The dansyl chloride method is a method of measuring skin turnover time. The method involves first treating the skin with a fluorescent dye (namely, dansyl chloride) and then, with the aid of a UV light, observing the disappearance of the fluorescence over time. When the site no longer fluoresces, the skin is considered to have turned over.
The exfoliating efficacy of the glycolic acid cream was compared to that of the L-carnitine creams at pH 4 and pH 7 described in Example 7 by the procedure described in Example 7.
The exfoliating efficacy of topical compositions (all at pH 7) containing 2.8% or 5.6% L-carnitine or 2.8% or 5.6% racemic (DL) carnitine was determined by the method described in Example 7. The 5.6% L-carnitine composition tested was that described in Example 7. The 5.6% DL-carnitine composition was prepared as described in Example 7, replacing the 5.6% L-carnitine with 5.6% DL-carnitine. The 2.8% L-carnitine and 2.8% DL-carnitine compositions were prepared as described in Example 7, replacing the 5.6% L-carnitine with (1) 2.8% L-carnitine and 2.8% DL-carnitine, respectively, and (2) 2.8% deionized water. DL-carntine is a racemic mixture containing 50% L-carnitine and 50% D-carnitine.
The exfoliating efficacy of topical compositions including (1) papain, (2) 5.6% L-carnitine, (3) 5.6% glycolic acid, or (4) papain with 5.6% L-carnitine was determined as follows.
The compositions were tested by the procedure described in Example 7.

skin [2] = assay: Moisturizing efficacy: water content of the skin measured with a corneometer; format: in vivo, human; settings: 5% in cream
Procedure: Each composition was applied twice daily to skin (0.2 g/10 cm^2) over a period of 10 days, and the water content of the skin was measured with a corneometer. Untreated skin was also tested as a control.

## C[N+](C)(C)C[C@H](O)CC(=O)[O-] [L-carnitine]
Skin [1]; 2.8% or 5.6% creams, all at pH 7 (FIG. 3)
  exfoliating efficacy compared with racemic (DL) carnitine: more effective as an exfoliant than racemic carnitine at the same concentration; also recorded: exfoliates skin more effectively and faster than racemic carnitine
Skin [1]; 5.6% L-carnitine cream at pH 4, 5, 6 or 7, applied twice daily over 20 days (FIG. 1)
  exfoliating efficacy, effect of composition pH: most effective at the optimal pH for enzymes, i.e., at a pH around 7; also recorded: exfoliates skin more effectively and faster in a topical composition at a pH of 7 than a similar composition at a pH of 4, 5, or 6
Skin [1]; L-carnitine cream, alone or with papain, vs 5.6% glycolic acid cream pH 4.0 (FIG. 2, FIG. 4)
  exfoliating efficacy compared with glycolic acid: exfoliates skin more effectively and faster than glycolic acid
Skin [1]; pH 4-7
  ability to exfoliate and reduce the time needed for skin turnover: exhibits the ability to exfoliate and to significantly reduce the time needed for skin turnover

## decaglycerol
Skin [2]; twice daily 0.2 g/10 cm^2, 1 day
  Water content of the skin after 1 day of treatment: 44.4%
Skin [2]; twice daily 0.2 g/10 cm^2, 2 days
  Water content of the skin after 2 days of treatment: 54.2%
Skin [2]; twice daily 0.2 g/10 cm^2, 3 days
  Water content of the skin after 3 days of treatment: 56.9%
Skin [2]; twice daily 0.2 g/10 cm^2, 6 days
  Water content of the skin after 6 days of treatment: 53.0%
Skin [2]; twice daily 0.2 g/10 cm^2, 8 days
  Water content of the skin after 8 days of treatment: 59.2%
Skin [2]; twice daily 0.2 g/10 cm^2, 9 days
  Water content of the skin after 9 days of treatment: 62.8%
Skin [2]; twice daily 0.2 g/10 cm^2, 10 days
  Water content of the skin after 10 days of treatment: 60.5%
